Source: patent US11180474B2 (BRISTOL-MYERS SQUIBB COMPANY, priority 2016, dated 2021)

Columns and labels:
TLR7 = test: In vivo mouse TLR7 PD model (gardiquimod challenge, plasma IL-6); details: oral
Description: In Vivo Mouse TLR7 and TLR9 PD Model:
Adult male C57BL/6 mice were used for the experiments. Mice (7 to 10 per group) were randomized into different treatment groups based on body weight. Mice from the respective treatment groups were administered orally with vehicle or test compound. Thirty min after the oral administration of vehicle or test compound, mice were challenged with intraperitoneal injection of gardiquimod for TLR7 PD model and CpG-ODN for TLR9 PD model. Ninety minutes after gardiquimod injection and 120 minutes after CpG-ODN injection, mice were bled under isoflurane anaesthesia and plasma IL-6 level was estimated by using commercially available ELISA kit (BD Biosciences). At the end of experiment, mean cytokine data was plotted and one way ANOVA with Dunnett's test was performed to calculate the significance of test compound treated group vs. vehicle control group. Percent inhibition of cytokine induction was calculated for test compound treated group vs vehicle control group.

human TLR9 = molecular target: T1, human TLR9 (Homo sapiens, UniProt Q9NR96); test: TLR9 inhibition reporter assay (HEK-Blue cells, SEAP reporter, ODN2006 stimulation); assay type: cell-based; details: HEK-Blue cells overexpressing human TLR9, ODN2006 5 nM
T1 construct: host or cells: HEK-Blue cells
T1 sequence (Q9NR96 26-1032): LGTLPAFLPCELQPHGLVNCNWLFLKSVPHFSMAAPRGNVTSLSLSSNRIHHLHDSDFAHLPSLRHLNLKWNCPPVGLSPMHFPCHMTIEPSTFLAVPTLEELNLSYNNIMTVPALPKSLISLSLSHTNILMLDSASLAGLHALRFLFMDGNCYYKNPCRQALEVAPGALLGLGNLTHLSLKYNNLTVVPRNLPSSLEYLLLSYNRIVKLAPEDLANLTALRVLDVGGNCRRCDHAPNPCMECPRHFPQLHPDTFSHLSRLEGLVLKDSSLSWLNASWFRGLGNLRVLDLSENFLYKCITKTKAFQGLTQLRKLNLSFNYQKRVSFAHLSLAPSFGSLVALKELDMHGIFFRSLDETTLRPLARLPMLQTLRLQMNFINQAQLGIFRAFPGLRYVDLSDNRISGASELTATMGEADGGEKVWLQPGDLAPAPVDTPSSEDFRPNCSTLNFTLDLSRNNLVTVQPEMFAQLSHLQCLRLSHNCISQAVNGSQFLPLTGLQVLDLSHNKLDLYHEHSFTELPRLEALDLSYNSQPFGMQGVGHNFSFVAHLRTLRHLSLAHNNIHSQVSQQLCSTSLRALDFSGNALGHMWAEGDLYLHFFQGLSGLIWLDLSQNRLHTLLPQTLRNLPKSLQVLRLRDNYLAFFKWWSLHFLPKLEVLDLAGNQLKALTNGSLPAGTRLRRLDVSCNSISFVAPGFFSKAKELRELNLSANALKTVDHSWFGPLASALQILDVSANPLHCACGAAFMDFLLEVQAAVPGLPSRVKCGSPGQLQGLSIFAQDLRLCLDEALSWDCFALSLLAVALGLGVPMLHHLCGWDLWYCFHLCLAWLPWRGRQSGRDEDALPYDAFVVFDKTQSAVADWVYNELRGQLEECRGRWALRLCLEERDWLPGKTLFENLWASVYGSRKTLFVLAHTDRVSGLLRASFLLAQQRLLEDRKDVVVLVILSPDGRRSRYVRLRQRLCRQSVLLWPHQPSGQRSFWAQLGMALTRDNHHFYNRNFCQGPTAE
Method in brief: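 Compound treatment: 30 min, RT, 0.05 nM–50 μM final. Agonist: TLR7 gardiquimod 7.5 μM; TLR8 R848 15.9 μM; TLR9 ODN2006 5 nM. Incubation 22 h, 37 °C, 5% CO2. Readout SEAP, HEK-Blue Detection.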

| IC50 (human TLR9) [nM] | SMILES | also measured |
| --- | --- | --- |
| 1370 | COc1ccc(-c2[nH]c3ccc(C4CCN(CC(=O)N(C)C)CC4)cc3c2C(C)C)cc1OC [Example 312, 2-(4-(2-(3,4-dimethoxyphenyl)-3-isopropyl-11H-indol-5-yl)piperidin-1-yl)-N,N-dimethylacetamide] | % inhibition of IL6 (TLR7; dose 0.001 mg/kg): 34%; % inhibition of IL6 (TLR7; dose 0.01 mg/kg): 39%; % inhibition of IL6 (TLR7; dose 0.1 mg/kg): 59%; % inhibition of IL6 (TLR7; dose 1 mg/kg): 82% |
| 774 | COc1ccc(-c2[nH]c3ccc(C4CCN(C(=O)CNC[C@H](O)CO)CC4)cc3c2C(C)C)cc1OC [Example 235, (S)-2-((2,3-dihydroxypropyl)amino)-1-(4-(2-(3,4-dimethoxyphenyl)-3-isopropyl-1H-indol-5-yl)piperidin-1-yl)ethan-1-one] |  |
| 1660 | COc1ccc(-c2[nH]c3ccc(C4CCN(CC(=O)N5CCCC(CO)C5)CC4)cc3c2C(C)C)cc1OC (centres unmarked) [Example 275, 2-(4-(2-(3,4-dimethoxyphenyl)-3-isopropyl-1H-indol-5-yl)piperidin-1-yl)-1-(3-(hydroxymethyl)piperidin-1-yl)ethan-1-one] |  |
| 1730 | COc1ccc(-c2[nH]c3ccc(C4CCN(C(=O)CN(C)C(C)C)CC4)cc3c2C(C)C)cc1OC [Example 227, 1-(4-(2-(3,4-dimethoxyphenyl)-3-isopropyl-1H-indol-5-yl)piperidin-1-yl)-2-(isopropyl(methyl)amino) ethan-1-one] |  |
| 2750 | COc1ccc(-c2[nH]c3ccc(C4CCN(C(=O)CN5CCC[C@@H](C(=O)N(C)C(C)C)C5)CC4)cc3c2C(C)C)cc1OC [Example 304, (R)-1-(2-(4-(2-(3,4-dimethoxyphenyl)-3-isopropyl-1H-indol-5-yl)piperidin-1-yl)-2-oxoethyl)-N-isopropyl-N-methylpiperidine-3-carboxamide] |  |
| 4950 | COc1ccc(-c2[nH]c3ccc(C4CCN(C(=O)CN5CCC[C@H](C(=O)NC(C)C)C5)CC4)cc3c2C(C)C)cc1OC [Example 285, (S)-1-(2-(4-(2-(3,4-dimethoxyphenyl)-3-isopropyl-1H-indol-5-yl)piperidin-1-yl)-2-oxoethyl)-N-isopropylpiperidine-3-carboxamide] |  |
| 2480 | COc1ccc(-c2[nH]c3ccc(C4CCN(C(=O)CN5CCC[C@@H](C(=O)N6C(C)CCC6C)C5)CC4)cc3c2C(C)C)cc1OC (stereo partly drawn) [Example 311, 1-(4-(2-(3,4-dimethoxyphenyl)-3-isopropyl-1H-indol-5-yl)piperidin-1-yl)-2-((3R)-3-(2,5-dimethylpyrrolidine-1-carbonyl)piperidin-1-yl)ethan-1-one] |  |
| 2610 | COc1ccc(-c2[nH]c3ccc(C4CCN(C(=O)CN5CCC[C@@H](C(=O)NCC#N)C5)CC4)cc3c2C(C)C)cc1OC [Example 308, (R)—N-(cyanomethyl)-1-(2-(4-(2-(3,4-dimethoxyphenyl)-3-isopropyl-1H-indol-5-yl)piperidin-1-yl)-2-oxoethyl)piperidine-3-carboxamide] |  |
| 1160 | COc1ccc(-c2[nH]c3ccc(C4CCN(C(=O)CNCCC(C)O)CC4)cc3c2C(C)C)cc1OC (centres unmarked) [Example 237, 1-(4-(2-(3,4-dimethoxyphenyl)-3-isopropyl-1H-indol-5-yl)piperidin-1-yl)-2-((3-hydroxybutyl)amino)ethan-1-one] |  |
| 6920 | COc1ccc(-c2[nH]c3ccc(C4CCN(C(=O)CN5CCC[C@@H](C(=O)NCC(N)=O)C5)CC4)cc3c2C(C)C)cc1OC [Example 309, (R)—N-(2-amino-2-oxoethyl)-1-(2-(4-(2-(3,4-dimethoxyphenyl)-3-isopropyl-1H-indol-5-yl)piperidin-1-yl)-2-oxoethyl)piperidine-3-carboxamide] |  |
